Experimental data reported in patent US9855265B2, “Methods for treating cancer with TrkA receptor tyrosine kinase antagonists” (VM Oncology LLC, priority 2014, dated 2018).

Tests used:
AKT1 = AKT1 (Homo sapiens, UniProt P31749); test: radiometric kinase assay, other kinases: AKT1; type: biochemical; conditions: duplicate
Experimental: (§1) Compound inhibition in a radiometric based mixed micelle assay: In a final reaction volume of 25 μL, TrkA (h) ([…]) is incubated with the kinase reaction buffer (20 mM HEPES (pH 7.5), 10 mM MgCl2, 1 mM EGTA, 0.02% Brij 35, 0.02 mg/ml BSA, 0.1 mM Na3VO4, 2 mM DTT, 1% DMSO), 0.2 mg/ml substrate PolyEY(4:1) and […], and [^33P-ATP](specific activity approx. 500 cpm/pmol, concentration as required). The reaction is initiated by the addition of the MgATP mix. After incubation for at least 40 minutes at room temperature, the reaction is stopped by the addition of 5 μL of a 3% phosphoric acid solution. 10 μL of the reaction is then spotted onto a P30 filtermat and washed three times for 5 minutes in 75 mM phosphoric acid and once in methanol prior to drying and scintillation counting. TrkA: Recombinant Human Cytoplasmic Domain (amino acids 441-796), Histidine-tagged, expressed in insect cells. Activated in vitro via auto-phosphorylation. Mw=42.8 kDa. Substrates for kinases: poly(EY) for TRKA; poly(EY)(4:1) with 2 mM MnCl2, average Mw=16 kDa Standard conditions (unless otherwise specified): 30 nM TRKA, 0.2 mg/ml poly(EY)+2 mM MnCl2, and 10 μM ([γ-^33P]) ATP. Using the similar assay condition with other kinases of recombinant human cytoplasmic domain, the activities of other kinases could be also measured.

AXL = molecular target: T1, AXL (Homo sapiens, UniProt P30530); test: radiometric kinase assay, other kinases: AXL; type: biochemical; conditions: duplicate
T1 construct: other kinases of recombinant human cytoplasmic domain
Experimental: as §1

BMX = BMX (Homo sapiens, UniProt P51813); test: radiometric kinase assay, other kinases: BMX; type: biochemical; conditions: duplicate
Experimental: as §1

CDK1/cyclinB = CDK1/cyclinB (Homo sapiens, UniProt P06493); test: radiometric kinase assay, other kinases: CDK1/cyclinB; type: biochemical; conditions: duplicate
Experimental: as §1

EPHA1 = molecular target: T2, EPHA1 (Homo sapiens, UniProt P21709); test: radiometric kinase assay, other kinases: EPHA1; type: biochemical; conditions: duplicate
T2 construct: other kinases of recombinant human cytoplasmic domain
Experimental: as §1

FGR = FGR (Homo sapiens, UniProt P09769); test: radiometric kinase assay, other kinases: FGR; type: biochemical; conditions: duplicate
Experimental: as §1

FLT3 (CD) = molecular target: T3, FLT3 (CD) (Homo sapiens, UniProt P36888); test: radiometric kinase assay, other kinases: FLT3 (CD); type: biochemical; conditions: duplicate
T3 construct: other kinases of recombinant human cytoplasmic domain
Experimental: as §1

ITK = ITK (Homo sapiens, UniProt Q08881); test: radiometric kinase assay, other kinases: ITK; type: biochemical; conditions: duplicate
Experimental: as §1

JNK3 = JNK3 (Homo sapiens, UniProt P53779); test: radiometric kinase assay, other kinases: JNK3; type: biochemical; conditions: duplicate
Experimental: as §1

LCK = LCK (Homo sapiens, UniProt P06239); test: radiometric kinase assay, other kinases: LCK; type: biochemical; conditions: duplicate
Experimental: as §1

MUSK = molecular target: T4, MUSK (Homo sapiens, UniProt O15146); test: radiometric kinase assay, other kinases: MUSK; type: biochemical; conditions: duplicate
T4 construct: other kinases of recombinant human cytoplasmic domain
Experimental: as §1

P38a/MAPK14 = P38a/MAPK14 (Homo sapiens, UniProt Q16539); test: radiometric kinase assay, other kinases: P38a/MAPK14; type: biochemical; conditions: duplicate
Experimental: as §1

PDGFRa = molecular target: T5, PDGFRa (Homo sapiens, UniProt P16234); test: radiometric kinase assay, other kinases: PDGFRa; type: biochemical; conditions: duplicate
T5 construct: other kinases of recombinant human cytoplasmic domain
Experimental: as §1

PKCbetaI = PKCbetaI (Homo sapiens, UniProt P05771); test: radiometric kinase assay, other kinases: PKCbetaI; type: biochemical; conditions: duplicate
Experimental: as §1

PKCdelta = PKCdelta (Homo sapiens, UniProt Q05655); test: radiometric kinase assay, other kinases: PKCdelta; type: biochemical; conditions: duplicate
Experimental: as §1

PKCeta = PKCeta (Homo sapiens, UniProt P24723); test: radiometric kinase assay, other kinases: PKCeta; type: biochemical; conditions: duplicate
Experimental: as §1

PKCgamma = PKCgamma (Homo sapiens, UniProt P05129); test: radiometric kinase assay, other kinases: PKCgamma; type: biochemical; conditions: duplicate
Experimental: as §1

PKCzeta = PKCzeta (Homo sapiens, UniProt Q05513); test: radiometric kinase assay, other kinases: PKCzeta; type: biochemical; conditions: duplicate
Experimental: as §1

RAF1 = RAF1 (Homo sapiens, UniProt P04049); test: radiometric kinase assay, other kinases: RAF1; type: biochemical; conditions: duplicate
Experimental: as §1

TIE2/TEK = molecular target: T6, TIE2/TEK (Homo sapiens, UniProt Q02763); test: radiometric kinase assay, other kinases: TIE2/TEK; type: biochemical; conditions: duplicate
T6 construct: other kinases of recombinant human cytoplasmic domain
Experimental: as §1

TrkB [1] = molecular target: T7, TrkB (Homo sapiens, UniProt Q16620); test: live whole cell based functional assay, BDNF stimulated TrkB activation; set-up: expressed in transfected cells; conditions: triplicate
Target sequence in this assay (Q16620 32-822): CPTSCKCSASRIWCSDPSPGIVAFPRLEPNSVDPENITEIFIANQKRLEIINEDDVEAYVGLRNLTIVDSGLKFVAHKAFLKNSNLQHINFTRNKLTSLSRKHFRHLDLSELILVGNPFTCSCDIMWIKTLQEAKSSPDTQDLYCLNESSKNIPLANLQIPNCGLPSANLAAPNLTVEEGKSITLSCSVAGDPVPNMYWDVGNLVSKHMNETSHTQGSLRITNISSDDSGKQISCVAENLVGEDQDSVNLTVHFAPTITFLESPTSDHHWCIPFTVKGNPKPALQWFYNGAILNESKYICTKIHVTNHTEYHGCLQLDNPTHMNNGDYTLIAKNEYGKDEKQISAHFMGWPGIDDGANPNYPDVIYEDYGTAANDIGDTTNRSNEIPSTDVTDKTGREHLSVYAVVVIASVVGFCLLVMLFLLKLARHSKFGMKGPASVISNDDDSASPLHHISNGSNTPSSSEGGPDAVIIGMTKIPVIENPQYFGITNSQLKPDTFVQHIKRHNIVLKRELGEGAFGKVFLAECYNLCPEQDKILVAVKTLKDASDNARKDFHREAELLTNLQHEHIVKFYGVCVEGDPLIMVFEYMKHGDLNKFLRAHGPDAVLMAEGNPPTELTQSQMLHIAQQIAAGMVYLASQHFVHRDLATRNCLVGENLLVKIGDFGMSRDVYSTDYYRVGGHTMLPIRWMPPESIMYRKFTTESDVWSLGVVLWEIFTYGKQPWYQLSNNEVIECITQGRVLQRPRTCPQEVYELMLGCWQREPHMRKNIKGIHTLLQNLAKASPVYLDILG

TrkB [2] = molecular target: T7, TrkB; test: radiometric kinase assay, other kinases: TrkB; type: biochemical; set-up: other kinases of recombinant human cytoplasmic domain; conditions: duplicate
Experimental: as §1
Target sequence in this assay (Q16620 455-822 limits assumed): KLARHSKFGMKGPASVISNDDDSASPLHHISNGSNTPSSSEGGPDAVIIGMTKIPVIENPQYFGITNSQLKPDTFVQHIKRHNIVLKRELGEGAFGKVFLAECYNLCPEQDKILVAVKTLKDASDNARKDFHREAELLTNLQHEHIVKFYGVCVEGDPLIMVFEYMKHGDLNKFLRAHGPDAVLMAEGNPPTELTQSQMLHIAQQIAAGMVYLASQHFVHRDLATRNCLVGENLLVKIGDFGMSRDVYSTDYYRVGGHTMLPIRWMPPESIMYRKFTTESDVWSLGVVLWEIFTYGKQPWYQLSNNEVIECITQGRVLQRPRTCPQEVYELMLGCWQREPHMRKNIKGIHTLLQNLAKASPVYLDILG

[3] = system: PANC-1 subcutaneous human pancreatic cancer xenografts; test: PANC-1 Subcutaneous Human Pancreatic Cancer Xenograft Mouse Model
Experimental: Temperature: 22±3° C. Humidity: 50±20%. Light cycle: 12 hours light and 12 hours dark. Cages: Polycarbonate cages of 300 mm×180 mm×150 mm embedded with the soft wood material were used. The bedding was changed twice a week. Diet: Animals had free access to a certified commercial laboratory diet. Concentrations of contaminants in the diet are routinely analyzed by the manufacturers to ensure the contaminants are below their allowable maximum and thus would not affect the tumor growth.
Water: Animals had free access to sterile drinking water. Cage identification: The identification labels for each cage contained the following information: number of animals, sex, strain, date received, treatment, group number and the starting date of the treatment. Briefly, PANC-1 cell line was originally purchased from the ATCC (CRL-1469) and the PANC-1 primary cell line was derived from the PANC-1 subcutaneously xenograft tumors. The PANC-1 primary cells were maintained in vitro as monolayer culture in DMEM medium supplemented with 10% heat inactivated fetal bovine serum, 100 U/ml penicillin and 100 μg/ml streptomycin and L-glutamine (2 mM) at 37° C. in an atmosphere of 5% CO2 air. The cells growing in exponential phase were harvested and counted for tumor inoculation.
Tumor Cell Inoculation and Randomization. Each animal was inoculated subcutaneously on the right flank with the PANC-1 primary tumor cells (5×10^6/animal) in 0.1 mL of PBS. Tumor development was allowed undisrupted until mean tumor volume reached approximately 85 mm^3. Animals were then randomized into 6 groups, with each group consisting of 8 animals. The test articles were administered to the tumor-bearing animals according to predetermined regimens. […] At the time of routine monitoring, the animals were checked for any effects of tumor growth on normal behavior such as mobility, food and water consumption (by looking only), body weight (BW) gain/loss (BW was measured twice weekly), eye/hair matting and any other abnormal effect. Death and observed clinical signs were recorded on the basis of the numbers of animals within each subset.
Tumor Measurement and the Endpoints: The major endpoint was to evaluate if the tumor growth could be inhibited. Tumor measurement was conducted twice weekly with a caliper and the tumor volume (mm3) is estimated using the formula: TV=a×b^2/2, where a and b are long and short diameters of a tumor, respectively. The tumor sizes were then used for T/C value and TGI (tumor growth inhibition), which are indicators of anti-tumor effectiveness. The T/C value (in percent) is an indication of antitumor effect. T and C are the mean volumes of the treated and control groups, respectively, on a given day. BW change, expressed as %, is calculated using the following formula: BW change (%)=(BW_DayX/BW_Day0)×100, where BW_DayX is BW on a given day, and BW_Day0 was BW on Day 0 (tumor inoculation).
Tumor Sample Collection: Two tumor samples from Group 1, 2 and 3, respectively; six tumor samples from Group 4; five tumor samples from Group 5 and 6, respectively, were snap frozen in liquid nitrogen and kept at −80° C. Total 22 tumor samples were collected.
Statistical Analyses: A one-way ANOVA was performed to compare tumor volumes among groups. All data were analyzed using the SPSS 17.0 software; p<0.05 was considered statistically significant.

Chain of RAF1 (P04049 whole entry): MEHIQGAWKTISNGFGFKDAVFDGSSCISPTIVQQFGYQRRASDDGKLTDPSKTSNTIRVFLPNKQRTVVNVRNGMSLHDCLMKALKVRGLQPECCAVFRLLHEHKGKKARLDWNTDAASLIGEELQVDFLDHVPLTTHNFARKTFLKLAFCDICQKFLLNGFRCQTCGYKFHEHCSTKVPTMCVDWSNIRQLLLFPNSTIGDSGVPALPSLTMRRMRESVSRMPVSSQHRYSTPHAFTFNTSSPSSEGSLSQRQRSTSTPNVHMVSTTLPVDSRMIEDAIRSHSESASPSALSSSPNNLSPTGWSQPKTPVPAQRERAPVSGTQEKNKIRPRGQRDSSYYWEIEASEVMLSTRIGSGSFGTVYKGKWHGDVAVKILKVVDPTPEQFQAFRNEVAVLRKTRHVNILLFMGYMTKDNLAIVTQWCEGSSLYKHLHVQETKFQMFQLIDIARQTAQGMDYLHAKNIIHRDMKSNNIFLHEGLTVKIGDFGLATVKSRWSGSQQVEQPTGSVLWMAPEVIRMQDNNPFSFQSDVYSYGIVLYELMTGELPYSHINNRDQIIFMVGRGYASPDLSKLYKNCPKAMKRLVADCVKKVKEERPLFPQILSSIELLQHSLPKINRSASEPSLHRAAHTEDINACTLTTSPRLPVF
Chain of ITK (Q08881 whole entry): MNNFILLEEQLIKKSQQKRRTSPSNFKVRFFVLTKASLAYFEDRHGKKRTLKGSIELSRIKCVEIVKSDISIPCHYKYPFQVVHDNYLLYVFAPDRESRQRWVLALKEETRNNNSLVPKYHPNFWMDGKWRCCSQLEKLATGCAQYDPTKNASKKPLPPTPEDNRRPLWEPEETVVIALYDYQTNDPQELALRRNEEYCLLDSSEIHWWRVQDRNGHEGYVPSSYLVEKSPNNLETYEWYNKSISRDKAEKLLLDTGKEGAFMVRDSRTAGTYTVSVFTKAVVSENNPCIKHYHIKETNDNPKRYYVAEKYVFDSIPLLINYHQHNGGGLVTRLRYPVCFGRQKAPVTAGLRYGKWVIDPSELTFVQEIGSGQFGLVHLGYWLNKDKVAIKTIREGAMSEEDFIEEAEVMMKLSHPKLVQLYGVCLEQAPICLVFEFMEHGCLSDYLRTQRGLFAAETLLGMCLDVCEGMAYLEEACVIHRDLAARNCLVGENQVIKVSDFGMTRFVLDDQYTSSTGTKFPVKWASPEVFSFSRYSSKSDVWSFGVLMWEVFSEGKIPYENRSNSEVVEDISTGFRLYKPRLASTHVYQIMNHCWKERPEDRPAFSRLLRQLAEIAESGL
Chain of LCK (P06239 whole entry): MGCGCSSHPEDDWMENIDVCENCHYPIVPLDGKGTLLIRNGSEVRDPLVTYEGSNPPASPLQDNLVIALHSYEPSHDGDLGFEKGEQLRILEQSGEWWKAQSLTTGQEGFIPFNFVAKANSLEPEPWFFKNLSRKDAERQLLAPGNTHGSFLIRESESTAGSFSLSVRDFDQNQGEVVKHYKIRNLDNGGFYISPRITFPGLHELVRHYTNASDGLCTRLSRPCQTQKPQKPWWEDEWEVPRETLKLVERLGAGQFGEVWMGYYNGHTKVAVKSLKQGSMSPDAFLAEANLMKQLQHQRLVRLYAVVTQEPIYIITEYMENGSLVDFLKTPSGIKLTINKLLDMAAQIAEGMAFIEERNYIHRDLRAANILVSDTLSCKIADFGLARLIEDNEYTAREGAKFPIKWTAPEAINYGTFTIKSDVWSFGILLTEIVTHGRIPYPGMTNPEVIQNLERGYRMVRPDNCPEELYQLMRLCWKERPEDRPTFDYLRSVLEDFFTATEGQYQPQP
T3 sequence (P36888 564-993 limits assumed): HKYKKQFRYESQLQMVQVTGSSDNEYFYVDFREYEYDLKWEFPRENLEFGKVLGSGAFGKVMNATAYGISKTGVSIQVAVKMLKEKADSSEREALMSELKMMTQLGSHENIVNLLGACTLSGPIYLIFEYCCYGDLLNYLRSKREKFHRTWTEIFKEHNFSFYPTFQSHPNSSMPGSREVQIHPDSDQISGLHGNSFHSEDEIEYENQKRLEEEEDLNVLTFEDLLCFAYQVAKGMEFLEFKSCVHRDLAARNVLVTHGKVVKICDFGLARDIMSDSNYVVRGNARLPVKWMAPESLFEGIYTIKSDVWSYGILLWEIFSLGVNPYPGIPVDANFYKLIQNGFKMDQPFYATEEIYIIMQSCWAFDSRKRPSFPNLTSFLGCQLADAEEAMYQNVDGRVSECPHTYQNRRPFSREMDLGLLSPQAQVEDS
Chain of P38a/MAPK14 (Q16539 whole entry): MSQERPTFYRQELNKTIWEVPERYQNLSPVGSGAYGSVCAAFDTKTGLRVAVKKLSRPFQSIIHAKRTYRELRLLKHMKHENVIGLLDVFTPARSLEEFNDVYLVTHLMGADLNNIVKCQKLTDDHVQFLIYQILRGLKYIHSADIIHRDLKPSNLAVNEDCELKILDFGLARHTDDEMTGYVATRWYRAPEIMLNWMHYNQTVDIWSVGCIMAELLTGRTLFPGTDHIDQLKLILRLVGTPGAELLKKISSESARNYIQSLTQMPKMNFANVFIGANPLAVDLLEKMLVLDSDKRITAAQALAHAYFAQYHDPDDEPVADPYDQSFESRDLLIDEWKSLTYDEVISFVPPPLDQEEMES
Chain of JNK3 (P53779 whole entry): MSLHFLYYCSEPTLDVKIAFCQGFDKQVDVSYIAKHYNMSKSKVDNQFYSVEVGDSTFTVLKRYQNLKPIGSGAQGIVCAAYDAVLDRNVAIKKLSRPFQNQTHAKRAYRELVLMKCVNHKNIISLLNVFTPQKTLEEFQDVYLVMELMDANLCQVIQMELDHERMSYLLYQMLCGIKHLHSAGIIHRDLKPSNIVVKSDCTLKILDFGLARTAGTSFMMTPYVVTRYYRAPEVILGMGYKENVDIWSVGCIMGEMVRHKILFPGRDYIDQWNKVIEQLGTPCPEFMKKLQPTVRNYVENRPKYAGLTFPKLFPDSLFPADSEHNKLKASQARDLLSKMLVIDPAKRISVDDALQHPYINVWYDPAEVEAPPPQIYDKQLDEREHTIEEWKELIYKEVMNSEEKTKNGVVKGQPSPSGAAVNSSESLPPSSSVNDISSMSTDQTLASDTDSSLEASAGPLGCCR
T6 sequence (Q02763 770-1124 limits assumed): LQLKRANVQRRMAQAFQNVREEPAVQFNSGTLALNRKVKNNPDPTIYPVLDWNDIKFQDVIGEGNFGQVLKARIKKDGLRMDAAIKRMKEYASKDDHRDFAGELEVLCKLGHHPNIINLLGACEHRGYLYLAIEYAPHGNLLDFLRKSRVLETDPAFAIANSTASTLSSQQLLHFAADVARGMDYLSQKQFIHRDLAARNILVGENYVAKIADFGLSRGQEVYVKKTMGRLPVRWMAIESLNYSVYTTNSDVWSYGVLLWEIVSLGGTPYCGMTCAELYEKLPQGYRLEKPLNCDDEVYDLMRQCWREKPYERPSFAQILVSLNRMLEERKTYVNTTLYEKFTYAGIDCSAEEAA
T4 sequence (O15146 517-869 limits assumed): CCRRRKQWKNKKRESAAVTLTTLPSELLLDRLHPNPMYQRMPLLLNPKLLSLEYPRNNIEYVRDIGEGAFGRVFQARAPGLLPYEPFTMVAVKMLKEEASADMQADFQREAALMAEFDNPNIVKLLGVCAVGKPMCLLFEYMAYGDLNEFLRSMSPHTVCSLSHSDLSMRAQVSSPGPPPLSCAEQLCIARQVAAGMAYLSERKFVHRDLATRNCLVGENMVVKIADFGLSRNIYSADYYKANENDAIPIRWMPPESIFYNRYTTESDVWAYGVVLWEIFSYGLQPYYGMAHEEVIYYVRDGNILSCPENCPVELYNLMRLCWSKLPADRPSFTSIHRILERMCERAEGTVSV

Nc1c(N2CCN(C3CCCCC3)CC2)cc(Nc2ccc(C(=O)O)cc2)c2c1C(=O)c1ccccc1C2=O [Compound 12, 4-{[4-amino-3-(4-cyclohexylpiperazin-1-yl)-9,10-dioxo-9,10-dihydroanthracen-1-yl]amino}benzoic acid]
IC50 (AKT1): > 10 µM | IC50 (AXL): > 10 µM | IC50 (BMX): > 10 µM | IC50 (CDK1/cyclinB): > 10 µM | IC50 (EPHA1): > 10 µM | IC50 (FGR): > 10 µM | IC50 (FLT3 (CD)): > 10 µM | IC50 (ITK): > 10 µM | IC50 (JNK3): > 10 µM | IC50 (LCK): > 10 µM | IC50 (MUSK): > 10 µM | IC50 (P38a/MAPK14): > 10 µM | IC50 (PDGFRa): > 10 µM | IC50 (PKCbetaI): > 10 µM | IC50 (PKCdelta): > 10 µM | IC50 (PKCeta): > 10 µM | IC50 (PKCgamma): > 10 µM | IC50 (PKCzeta): > 10 µM | IC50 (RAF1): > 10 µM | IC50 (TIE2/TEK): > 10 µM | IC50 (TrkB [1]): > 10 µM | IC50 (TrkB [2]): > 10 µM | TGI (%, D18) ([3]; D18, Compound-12 alone, dose not given): 34% | Tumor volume (Mean ± SEM) ([3]; Day 7, Compound-12 alone, dose not given): 84 ± 4 mm^3 | Tumor volume (Mean ± SEM) ([3]; Day 11, Compound-12 alone, dose not given): 111 ± 5 mm^3 | Tumor volume (Mean ± SEM) ([3]; Day 14, Compound-12 alone, dose not given): 157 ± 15 mm^3 | Tumor volume (Mean ± SEM) ([3]; Day 18, Compound-12 alone, dose not given): 234 ± 8 mm^3 | Tumor volume (Mean ± SEM) ([3]; Day 19, Compound-12 alone, dose not given): 276 ± 27 mm^3 | anti-tumor efficacy in words ([3]; alone or in combination with gemcitabine): efficacious in reducing tumor growth
